Assay results taken from patent US11427567B2, “Imidazolyl pyrimidinylamine compounds as CDK2 inhibitors” (Incyte Corporation, priority 2019, dated 2022).
pIC50: −log10 of the molar value.

Molecular target: CDK2/Cyclin E1 (Homo sapiens (Human), UniProt P24941)
Assay: CDK2/Cyclin E1 HTRF enzyme activity assay (Example A)
Format: biochemical
Conditions: 1 mM ATP
Experimental: Assays were conducted in white 384-well polystyrene plates in a final reaction volume of 8 μL. […] HTRF signals were read after 1 hour at room temperature on a PHERAstar FS plate reader (BMG Labtech). Data was analyzed with IDBS XLFit and GraphPad Prism 5.0 software using a three or four parameter dose response curve to determine IC50 for each compound.

Row | SMILES | pIC50
1 | Cc1nc(-c2nc(NC3CCN(S(C)(=O)=O)CC3)ncc2C(F)(F)F)cn1-c1ccc(N2CC[C@H](O)C2)cc1F [Example 116, (S)-1-(3-Fluoro-4-(2-methyl-4-(2-((1-(methylsulfonyl)-piperidin-4-yl)-amino)-5-(trifluoro-methyl)pyrimidin-4-yl)-1H-imidazol-1-yl)phenyl)pyrrolidin-3-ol] | ≥ 7.30
2 | CC(=O)NCc1ccc(-n2cnc(-c3nc(NC4CCN(S(C)(=O)=O)CC4)ncc3C(F)(F)F)c2)c(Cl)c1 [Example 185, N-(3-Chloro-4-(4-(2-((1-(methylsulfonyl)piperidin-4-yl)amino)-5-(trifluoromethyl)pyrimidin-4-yl)-1H-imidazol-1-yl)benzyl)acetamide] | ≥ 7.30
3 | CS(=O)(=O)N1CCC(Nc2ncc(C(F)(F)F)c(-c3cn(-c4ccc(C#N)nc4C(F)(F)F)cn3)n2)CC1 [Example 99, 5-(4-(2-((1-(Methylsulfonyl)piperidin-4-yl)amino)-5-(trifluoromethyl)pyrimidin-4-yl)-1H-imidazol-1-yl)-6-(trifluoromethyl)picolinonitrile] | ≥ 7.30
4 | Cc1nc(-c2nc(NC3CCN(S(C)(=O)=O)CC3)ncc2C(F)(F)F)cn1-c1ccc(N2CCN(C(C)C)CC2)cc1F [Example 105, 4-(1-(2-Fluoro-4-(4-isopropyl-piperazin-1-yl)-phenyl)-2-methyl-1H-imidazol-4-yl)-N-(1-(methyl-sulfonyl)piperidin-4-yl)-5-(trifluoro-methyl)pyrimidin-2-amine] | ≥ 7.30
5 | CC(C)(O)Cn1cnc(-c2nc(NC3CCN(S(C)(=O)=O)CC3)ncc2C(F)(F)F)c1 [Example 22, 2-Methyl-1-(4-(2-((1-(methylsulfonyl)piperidin-4-yl)amino)-5-(trifluoromethyl)pyrimidin-4-yl)-1H-imidazol-1-yl)propan-2-ol] | ≥ 7.30
6 | CCN(C)CCOc1ccc(-n2cnc(-c3nc(NC4CCN(S(C)(=O)=O)CC4)ncc3C(F)(F)F)c2)c(C#N)n1 [Example 76, 6-(2-(Ethyl(methyl)amino)ethoxy)-3-(4-(2-((1-(methylsulfonyl)piperidin-4-yl)amino)-5-(trifluoromethyl)pyrimidin-4-yl)-1H-imidazol-1-yl)picolinonitrile] | ≥ 7.30
7 | CS(=O)(=O)N1CC[C@H](Nc2ncc(C(F)(F)F)c(-c3cn(-c4cccnc4C#N)cn3)n2)[C@H](F)C1 [Example 47, 3-(4-(2-(((3R,4S)-3-Fluoro-1-(methylsulfonyl)piperidin-4-yl)amino)-5-(trifluoromethyl)pyrimidin-4-yl)-1H-imidazol-1-yl)picolinonitrile] | ≥ 7.30
8 | CC1(CO)CCN1Cc1ccc(-n2cnc(-c3nc(NC4CCN(S(C)(=O)=O)CC4)ncc3C(F)(F)F)c2)c(Cl)c1 (stereo not drawn) [Example 201, (1-(3-Chloro-4-(4-(2-((1-(methylsulfonyl)-piperidin-4-yl)amino)-5-(trifluoromethyl)-pyrimidin-4-yl)-1H-imidazol-1-yl)benzyl)-2-methylazetidin-2-yl)methanol] | ≥ 7.30
9 | CS(=O)(=O)N1CCC(Nc2ncc(C(F)(F)F)c(-c3cn(-c4ccc(N5CC[C@H](O)C5)cc4Cl)cn3)n2)CC1 [Example 139, (S)-1-(3-Chloro-4-(4-(2-((1-(methyl-sulfonyl)piperidin-4-yl)amino)-5-(trifluoromethyl)-pyrimidin-4-yl)-1H-imidazol-1-yl)-phenyl)pyrrolidin-3-ol] | ≥ 7.30
10 | CS(=O)(=O)N1CCC(Nc2ncc(C(F)(F)F)c(-c3cn(-c4ccc(CN5C6COCC5C6)cc4Cl)cn3)n2)CC1 [Example 214, 4-(1-(4-((3-Oxa-6-azabicyclo[3.1.1]-heptan-6-yl)methyl)-2-chlorophenyl)-1H-imidazol-4-yl)-N-(1-(methylsulfonyl)-piperidin-4-yl)-5-(trifluoromethyl)-pyrimidin-2-amine] | ≥ 7.30
11 | Cc1nc(C(N)=O)ccc1-n1cnc(-c2nc(NC3CCN(S(C)(=O)=O)CC3)ncc2C(F)(F)F)c1 [Example 130, 6-Methyl-5-(4-(2-((1-(methylsulfonyl)piperidin-4-yl)amino)-5-(trifluoromethyl)pyrimidin-4-yl)-1H-imidazol-1-yl)picolinamide] | ≥ 7.30
12 | CNCc1ccc(-n2cnc(-c3nc(NC4CCN(S(C)(=O)=O)CC4)ncc3Cl)c2)c(Cl)c1 [Example 227, 5-Chloro-4-(1-(2-chloro-4-((methyl-amino)methyl)-phenyl)-1H-imidazol-4-yl)-N-(1-(methyl-sulfonyl)piperidin-4-yl)pyrimidin-2-amine] | ≥ 7.30
13 | Cn1cnc(S(=O)(=O)N2CCC(Nc3ncc(C(F)(F)F)c(-c4cn(-c5cc(N)ncc5F)cn4)n3)CC2)c1 [Example 6, 4-(1-(2-Amino-5-fluoropyridin-4-yl)-1H-imidazol-4-yl)-N-(1-((1-methyl-1H-imidazol-4-yl)sulfonyl)piperidin-4-yl)-5-(trifluoromethyl)pyrimidin-2-amine] | ≥ 7.30

Results, then the molecule that gave them:

Row | pIC50 | SMILES
14 | ≥ 7.30 | COc1nccc(-n2cnc(-c3nc(N[C@H]4CCN(S(C)(=O)=O)C[C@H]4F)ncc3C(F)(F)F)c2)c1C#N [Example 297, 4-(4-(2-(((3R,4S)-3-Fluoro-1-(methylsulfonyl)piperidin-4-yl)amino)-5-(trifluoromethyl)pyrimidin-4-yl)-1H-imidazol-1-yl)-2-methoxynicotinonitrile]
15 | ≥ 7.30 | CN1CCN(CCc2ccc(-n3cnc(-c4nc(NC5CCN(S(C)(=O)=O)CC5)ncc4C(F)(F)F)c3)c(C#N)c2)CC1 [Example 457, 5-(2-(4-Methylpiperazin-1-yl)ethyl)-2-(4-(2-((1-(methylsulfonyl)piperidin-4-yl)amino)-5-(trifluoromethyl)pyrimidin-4-yl)-1H-imidazol-1-yl)benzonitrile]
16 | ≥ 7.30 | CNCc1cc(F)c(-n2cnc(-c3nc(NC4CCN(S(C)(=O)=O)CC4)ncc3C(F)(F)F)c2)c(F)c1 [Example 350, 4-(1-(2,6-Difluoro-4-((methylamino)methyl)phenyl)-1H-imidazol-4-yl)-N-(1-(methylsulfonyl)piperidin-4-yl)-5-(trifluoromethyl)pyrimidin-2-amine]
17 | ≥ 7.30 | CS(=O)(=O)N1CCC(Nc2ncc(C(F)(F)F)c(-c3cn(-c4cccc(CN5CCC5)c4C(F)(F)F)cn3)n2)CC1 [Example 380, 4-(1-(3-(Azetidin-1-ylmethyl)-2-(trifluoromethyl)phenyl)-1H-imidazol-4-yl)-N-(1-(methylsulfonyl)piperidin-4-yl)-5-(trifluoromethyl)pyrimi-din-2-amine]
18 | ≥ 7.30 | CC(C)(O)Cn1cnc(-c2nc(N[C@@H]3CCN(S(=O)(=O)C4CC4)C[C@H]3F)ncc2C(F)(F)F)c1 [Example 333, 1-(4-(2-(((3R,4R)-1-(Cyclopropylsulfonyl)-3-fluoropiperidin-4-yl)amino)-5-4-yl)-1H-imidazol-1-yl)-2-methylpropan-2-ol]
19 | ≥ 7.30 | Cc1nc(-c2nc(NC3CCN(S(C)(=O)=O)CC3)ncc2C(F)(F)F)cn1-c1ccc(CN2CC(C(C)(C)O)C2)cc1F [Example 282, 2-(1-(3-Fluoro-4-(2-methyl-4-(2-((1-(methylsulfonyl)piperidin-4-yl)amino)-5-(trifluoromethyl)pyrimidin-4-yl)-1H-imidazol-1-yl)benzyl)azetidin-3-yl)propan-2-ol]
20 | ≥ 7.30 | CN1CCN(Cc2ccc(-n3cnc(-c4nc(NC5CCN(S(C)(=O)=O)CC5)ncc4C(F)(F)F)c3)c(Cl)c2)C(=O)C1 [Example 451, 1-(3-Chloro-4-(4-(2-((1-(methylsulfonyl)piperidin-4-yl)amino)-5-(trifluoromethyl)pyrimidin-4-yl)-1H-imidazol-1-yl)benzyl)-4-methylpiperazin-2-one]
21 | ≥ 7.30 | CCN1CCN(Cc2cc(F)c(-n3cnc(-c4nc(N[C@H]5CCN(S(C)(=O)=O)C[C@H]5F)ncc4C(F)(F)F)c3)c(F)c2)CC1 [Example 447, 4-(1-(4-((4-Ethylpiperazin-1-yl)methyl)-2,6-difluorophenyl)-1H-imidazol-4-yl)-N-((3R,45)-3-fluoro-1-(methylsulfonyl)piperidin-4-yl)-5-(trifluoromethyl)pyrimidin-2-amine]
22 | ≥ 7.30 | CS(=O)(=O)N1CCC(Nc2ncc(C(F)(F)F)c(-c3cn(-c4cccc(CCN5CCOCC5)c4Cl)cn3)n2)CC1 [Example 369, 4-(1-(2-Chloro-3-(2-morpholinoethyl)phenyl)-1H-imidazol-4-yl)-N-(1-(methylsulfonyl)piperidin-4-yl)-5-(trifluoromethyl)pyrimidin-2-amine]
23 | ≥ 7.30 | Cc1nc(CN(C)C)ccc1-n1cnc(-c2nc(NC3CCN(S(C)(=O)=O)CC3)ncc2C(F)(F)F)c1 [Example 263, 4-(1-(6-((Dimethylamino)methyl)-2-methylpyridin-3-yl)-1H-imidazol-4-yl)-N-(1-(methylsulfonyl)piperidin-4-yl)-5-(trifluoromethyl)pyrimidin-2-amine]
24 | ≥ 7.30 | Cc1c(C#N)cccc1-n1cc(-c2nc(N[C@H]3CCN(S(C)(=O)=O)C[C@H]3F)ncc2C(F)(F)F)nc1C [Example 306, 3-(4-(2-(((3R,4S)-3-Fluoro-1-(methylsulfonyl)piperidin-4-yl)amino)-5-(trifluoromethyl)pyrimidin-4-yl)-2-methyl-1H-imidazol-1-yl)-2-methylbenzonitrile]
25 | ≥ 7.30 | CS(=O)(=O)N1CCC(Nc2ncc(C(F)(F)F)c(-c3cn(-c4ccnc(N5CCOCC5)c4Cl)cn3)n2)CC1 [Example 320]
26 | ≥ 7.30 | CS(=O)(=O)N1CC[C@H](Nc2ncc(C(F)(F)F)c(-c3cn(-c4ccccc4C#N)cn3)n2)[C@H](F)C1 [Example 472, 2-(4-(2-(((3R,4S)-3-Fluoro-1-(methylsulfonyl)piperidin-4-yl)amino)-5-(trifluoromethyl)pyrimidin-4-yl)-1H-imidazol-1-yl)benzonitrile]
27 | ≥ 7.30 | Cc1nccc(-n2cnc(-c3nc(NC4CCN(S(C)(=O)=O)CC4)ncc3C(F)(F)F)c2)c1Cl [Example 296, 4-(1-(3-Chloro-2-methylpyridin-4-yl)-1H-imidazol-4-yl)-N-(1-(methylsulfonyl)piperidin-4-yl)-5-(trifluoromethyl)pyrimidin-2-amine]
